For assay [1], the system named is left tumor-derived cells of the GBM9 patient. Kind of assay: PDC-based chemical screening (ATP cell viability, dose-response AUC), left tumor. On the set-up: species or system human. The settings on record: GBM9 left tumor PDCs. As to the method:
(§1) According to one embodiment, the measuring of drug sensitivity of each sample by subjecting the multiple samples to drug screening may include obtaining a cell viability curve of each sample according to a dose of each drug; and calculating an area under the curve.
(§2) GBM9 patient had tumors in the right and left frontal lobes of the brain, respectively. In this regard, 40 kinds of anticancer agents were administered to samples collected from the respective tumors, and tumor cell viability was examined.
(§3) When a curve of tumor cell viability vs drug dose is plotted, an area under the curve (AUC) may be used as an index of drug sensitivity. […]
(§4) PDCs grown in serum-free medium were seeded in 384 well plates at a density of 500 cells per well in duplicate or triplicate. […] After 6 days of incubation at 37° C. in a 5% CO2 humidified incubator, cell viability was analyzed using an adenosine triphosphate (ATP) monitoring system based on firefly luciferase (ATPLite™ 1step, PerkinElmer). At this time, viable cells were estimated using an EnVision Multilabel Reader (PerkinElmer). […] DRC fitting was performed using GraphPad Prism 5 (GraphPad) and evaluated by measuring an area under the curve (AUC) of dose response curve. After normalization, best-fit lines were determined and the AUC value of each curve was calculated using a GraphPad Prism. […]

Assay [2] has as its system right tumor-derived cells of the GBM9 patient. Nature of the assay: PDC-based chemical screening (ATP cell viability, dose-response AUC), right tumor. The arrangement: species or system human. The following applies: GBM9 right tumor PDCs. As to the method:
as §1, §2, §3, §4

Where [3] appears, read: 6 days, 20 μM to 4.88 nM, FIG. 6.

Each structure is given as a SMILES string.

On to `Nc1cc(C(F)(F)F)c(-c2cc(N3CCOCC3)nc(N3CCOCC3)n2)cn1` [BKM120, Buparlisib], for which the “survival rate of tumor cells with increasing drug dose” value in assay [1] (setting [3]) and in assay [2] (setting [3]) was “survival rates of the two tumors decreased” each time. In addition, the “area under the curve (AUC) of cell viability vs dose (low AUC = high drug sensitivity)” value in assay [1] (FIG. 6, FIG. 7) is listed as “relatively low”; in assay [2] (FIG. 6, FIG. 7), “relatively low”.

These data come from patent publication US20210087620A1, “Target Gene Identifying Method for Tumor Treatment” (Samsung Life Public Welfare Foundation Samsung Life Public …, priority 2017, published 2021).
